# Measured values taken from patent US7462600B2, “Macrolides” (Pfizer Inc, priority 2004, dated 2008).
# Columns and labels:
# Type in all cases: cell-based
# [1] = tested on: Haemophilus influenzae 1218; experiment: MIC, microtiter broth dilution (NCCLS M100-S14), H. influenzae 1218 (susceptible); conditions: H. influenzae 1218 (susceptible)
# Method in brief: (§1)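 Panel strains, including macrolide-resistant isolates and their susceptible parents where available, are exposed to serial compound dilutions in microtiter trays. Growth inhibition is scored as MIC under NCCLS M100-S14 standards.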
# [2] = tested on: Streptococcus pneumoniae 1016; experiment: MIC, microtiter broth dilution (NCCLS M100-S14), S. pneumoniae 1016 (susceptible); conditions: S. pneumoniae 1016 (susceptible)
# Method in brief: as §1
# [3] = tested on: Streptococcus pyogenes 1079; experiment: MIC, microtiter broth dilution (NCCLS M100-S14), S. pyogenes 1079 (ermB); conditions: S. pyogenes 1079 (ermB)
# Method in brief: as §1
# [4] = tested on: Streptococcus pneumoniae 1095; conditions: S. pneumoniae 1095 (ermB); microtiter broth dilution
# Method in brief: as §1
# [5] = tested on: Streptococcus pneumoniae 1175; conditions: S. pneumoniae 1175 (mefA); microtiter broth dilution
# Method in brief: as §1
smiles,measurement,setting,value
CC[C@H]1OC(=O)[C@H](C)C(=O)[C@H](C)[C@@H](O[C@@H]2O[C@H](C)C[C@H](N(C)C)[C@H]2O)[C@](C)(OC)C[C@@H](C)C(=O)[C@H](C)[C@H]2N(CC3(O)CN(S(=O)(=O)c4ccc5[nH]c(=O)oc5c4)C3)C(=O)O[C@]12C [7.16],MIC H. influenzae 1218,[1],1 µg/mL
same,MIC S. pneumo. 1016,[2],<0.06 µg/mL
same,MIC S. pyogenes 1079,[3],>64.00 µg/mL
same,MIC S. pneumo. 1095,[4],64 µg/mL
same,MIC S. pneumo. 1175,[5],4 µg/mL
CC[C@H]1OC(=O)[C@H](C)C(=O)[C@H](C)[C@@H](O[C@@H]2O[C@H](C)C[C@H](N(C)C)[C@H]2O)[C@](C)(OC)C[C@@H](C)C(=O)[C@H](C)[C@H]2N(CC3(O)CN(C(=O)c4ccc5cccnc5n4)C3)C(=O)O[C@]12C [7.17],MIC H. influenzae 1218,[1],1 µg/mL
same,MIC S. pneumo. 1016,[2],<0.06 µg/mL
same,MIC S. pyogenes 1079,[3],>64.00 µg/mL
same,MIC S. pneumo. 1095,[4],<0.06 µg/mL
same,MIC S. pneumo. 1175,[5],0.5 µg/mL
CC[C@H]1OC(=O)[C@H](C)C(=O)[C@H](C)[C@@H](O[C@@H]2O[C@H](C)C[C@H](N(C)C)[C@H]2O)[C@](C)(OC)C[C@@H](C)C(=O)[C@H](C)[C@H]2N(CC3(O)CN(C(=O)c4ccc5nccnc5c4)C3)C(=O)O[C@]12C [7.18],MIC H. influenzae 1218,[1],2 µg/mL
same,MIC S. pneumo. 1016,[2],<0.06 µg/mL
same,MIC S. pyogenes 1079,[3],>64.00 µg/mL
same,MIC S. pneumo. 1095,[4],0.25 µg/mL
same,MIC S. pneumo. 1175,[5],0.25 µg/mL
CC[C@H]1OC(=O)[C@H](C)C(=O)[C@H](C)[C@@H](O[C@@H]2O[C@H](C)C[C@H](N(C)C)[C@H]2O)[C@](C)(OC)C[C@@H](C)C(=O)[C@H](C)[C@H]2N(CC3(O)CN(C(=O)c4cccc5ncccc45)C3)C(=O)O[C@]12C [7.19],MIC H. influenzae 1218,[1],1 µg/mL
same,MIC S. pneumo. 1016,[2],<0.06 µg/mL
same,MIC S. pyogenes 1079,[3],>64.00 µg/mL
same,MIC S. pneumo. 1095,[4],0.12 µg/mL
same,MIC S. pneumo. 1175,[5],0.25 µg/mL
CC[C@H]1OC(=O)[C@H](C)C(=O)[C@H](C)[C@@H](O[C@@H]2O[C@H](C)C[C@H](N(C)C)[C@H]2O)[C@](C)(OC)C[C@@H](C)C(=O)[C@H](C)[C@H]2N(CC3(O)CN(C(=O)c4cccc5cccnc45)C3)C(=O)O[C@]12C [7.20],MIC H. influenzae 1218,[1],0.5 µg/mL
same,MIC S. pneumo. 1016,[2],<0.06 µg/mL
same,MIC S. pyogenes 1079,[3],>64.00 µg/mL
same,MIC S. pneumo. 1095,[4],2 µg/mL
same,MIC S. pneumo. 1175,[5],1 µg/mL
CC[C@H]1OC(=O)[C@H](C)C(=O)[C@H](C)[C@@H](O[C@@H]2O[C@H](C)C[C@H](N(C)C)[C@H]2O)[C@](C)(OC)C[C@@H](C)C(=O)[C@H](C)[C@H]2N(CC3(O)CN(C(=O)c4ccc5cccnc5c4)C3)C(=O)O[C@]12C [7.21],MIC H. influenzae 1218,[1],2 µg/mL
same,MIC S. pneumo. 1016,[2],<0.06 µg/mL
same,MIC S. pyogenes 1079,[3],>64.00 µg/mL
same,MIC S. pneumo. 1095,[4],0.5 µg/mL
same,MIC S. pneumo. 1175,[5],1 µg/mL
CC[C@H]1OC(=O)[C@H](C)C(=O)[C@H](C)[C@@H](O[C@@H]2O[C@H](C)C[C@H](N(C)C)[C@H]2O)[C@](C)(OC)C[C@@H](C)C(=O)[C@H](C)[C@H]2N(CC3(O)CN(C(=O)c4ccc5ccccc5n4)C3)C(=O)O[C@]12C [7.22],MIC H. influenzae 1218,[1],1 µg/mL
same,MIC S. pneumo. 1016,[2],<0.06 µg/mL
same,MIC S. pyogenes 1079,[3],>64.00 µg/mL
same,MIC S. pneumo. 1095,[4],<0.06 µg/mL
same,MIC S. pneumo. 1175,[5],0.12 µg/mL
CC[C@H]1OC(=O)[C@H](C)C(=O)[C@H](C)[C@@H](O[C@@H]2O[C@H](C)C[C@H](N(C)C)[C@H]2O)[C@](C)(OC)C[C@@H](C)C(=O)[C@H](C)[C@H]2N(CC3(O)CN(C(=O)c4cncc5ccccc45)C3)C(=O)O[C@]12C [7.23],MIC H. influenzae 1218,[1],2 µg/mL
same,MIC S. pneumo. 1016,[2],<0.06 µg/mL
same,MIC S. pyogenes 1079,[3],>64.00 µg/mL
same,MIC S. pneumo. 1095,[4],0.5 µg/mL
same,MIC S. pneumo. 1175,[5],0.5 µg/mL
CC[C@H]1OC(=O)[C@H](C)C(=O)[C@H](C)[C@@H](O[C@@H]2O[C@H](C)C[C@H](N(C)C)[C@H]2O)[C@](C)(OC)C[C@@H](C)C(=O)[C@H](C)[C@H]2N(CC3(O)CN(C(=O)c4cccc5ccncc45)C3)C(=O)O[C@]12C [7.24],MIC H. influenzae 1218,[1],2 µg/mL
same,MIC S. pneumo. 1016,[2],<0.06 µg/mL
same,MIC S. pyogenes 1079,[3],>64.00 µg/mL
same,MIC S. pneumo. 1095,[4],2 µg/mL
same,MIC S. pneumo. 1175,[5],1 µg/mL
CC[C@H]1OC(=O)[C@H](C)C(=O)[C@H](C)[C@@H](O[C@@H]2O[C@H](C)C[C@H](N(C)C)[C@H]2O)[C@](C)(OC)C[C@@H](C)C(=O)[C@H](C)[C@H]2N(CC3(O)CN(C(=O)c4cnc5ncccc5c4)C3)C(=O)O[C@]12C [7.25],MIC H. influenzae 1218,[1],1 µg/mL
same,MIC S. pneumo. 1016,[2],<0.06 µg/mL
same,MIC S. pyogenes 1079,[3],>64.00 µg/mL
same,MIC S. pneumo. 1095,[4],<0.06 µg/mL
same,MIC S. pneumo. 1175,[5],2 µg/mL
CC[C@H]1OC(=O)[C@H](C)C(=O)[C@H](C)[C@@H](O[C@@H]2O[C@H](C)C[C@H](N(C)C)[C@H]2O)[C@](C)(OC)C[C@@H](C)C(=O)[C@H](C)[C@H]2N(CC3(O)CN(C(=O)c4cc5cccnc5[nH]4)C3)C(=O)O[C@]12C [7.26],MIC H. influenzae 1218,[1],0.5 µg/mL
same,MIC S. pneumo. 1016,[2],<0.06 µg/mL
same,MIC S. pyogenes 1079,[3],>64.00 µg/mL
same,MIC S. pneumo. 1095,[4],0.12 µg/mL
same,MIC S. pneumo. 1175,[5],0.25 µg/mL
CC[C@H]1OC(=O)[C@H](C)C(=O)[C@H](C)[C@@H](O[C@@H]2O[C@H](C)C[C@H](N(C)C)[C@H]2O)[C@](C)(OC)C[C@@H](C)C(=O)[C@H](C)[C@H]2N(CC3(O)CN(C(=O)c4cc5ccncc5[nH]4)C3)C(=O)O[C@]12C [7.27],MIC H. influenzae 1218,[1],1 µg/mL
same,MIC S. pneumo. 1016,[2],<0.06 µg/mL
same,MIC S. pyogenes 1079,[3],>64.00 µg/mL
same,MIC S. pneumo. 1095,[4],<0.06 µg/mL
same,MIC S. pneumo. 1175,[5],1 µg/mL
CC[C@H]1OC(=O)[C@H](C)C(=O)[C@H](C)[C@@H](O[C@@H]2O[C@H](C)C[C@H](N(C)C)[C@H]2O)[C@](C)(OC)C[C@@H](C)C(=O)[C@H](C)[C@H]2N(CC3(O)CN(C(=O)c4nc5ccccc5[nH]4)C3)C(=O)O[C@]12C.O=CO [7.28],MIC H. influenzae 1218,[1],2 µg/mL
same,MIC S. pneumo. 1016,[2],<0.06 µg/mL
same,MIC S. pyogenes 1079,[3],>64.00 µg/mL
same,MIC S. pneumo. 1095,[4],<0.06 µg/mL
same,MIC S. pneumo. 1175,[5],0.25 µg/mL
CC[C@H]1OC(=O)[C@H](C)C(=O)[C@H](C)[C@@H](O[C@@H]2O[C@H](C)C[C@H](N(C)C)[C@H]2O)[C@](C)(OC)C[C@@H](C)C(=O)[C@H](C)[C@H]2N(CC3(O)CN(C(=O)c4cn5ccccc5n4)C3)C(=O)O[C@]12C.O=CO [7.29],MIC H. influenzae 1218,[1],1 µg/mL
same,MIC S. pneumo. 1016,[2],<0.06 µg/mL
same,MIC S. pyogenes 1079,[3],>64.00 µg/mL
same,MIC S. pneumo. 1095,[4],0.25 µg/mL
same,MIC S. pneumo. 1175,[5],8 µg/mL
CC[C@H]1OC(=O)[C@H](C)C(=O)[C@H](C)[C@@H](O[C@@H]2O[C@H](C)C[C@H](N(C)C)[C@H]2O)[C@](C)(OC)C[C@@H](C)C(=O)[C@H](C)[C@H]2N(CC3(O)CN(C(=O)c4cc5ccccn5n4)C3)C(=O)O[C@]12C.O=CO [7.30],MIC H. influenzae 1218,[1],8 µg/mL
same,MIC S. pneumo. 1016,[2],<0.06 µg/mL
same,MIC S. pyogenes 1079,[3],>64.00 µg/mL
same,MIC S. pneumo. 1095,[4],0.25 µg/mL
same,MIC S. pneumo. 1175,[5],0.25 µg/mL
CC[C@H]1OC(=O)[C@H](C)C(=O)[C@H](C)[C@@H](O[C@@H]2O[C@H](C)C[C@H](N(C)C)[C@H]2O)[C@](C)(OC)C[C@@H](C)C(=O)[C@H](C)[C@H]2N(CC3(O)CN(C(=O)c4ccc(-n5cccn5)nc4)C3)C(=O)O[C@]12C.O=CO [7.31],MIC H. influenzae 1218,[1],8 µg/mL
same,MIC S. pneumo. 1016,[2],<0.06 µg/mL
same,MIC S. pyogenes 1079,[3],>64.00 µg/mL
same,MIC S. pneumo. 1095,[4],4 µg/mL
same,MIC S. pneumo. 1175,[5],0.12 µg/mL
CC[C@H]1OC(=O)[C@H](C)C(=O)[C@H](C)[C@@H](O[C@@H]2O[C@H](C)C[C@H](N(C)C)[C@H]2O)[C@](C)(OC)C[C@@H](C)C(=O)[C@H](C)[C@H]2N(CC3(O)CN(C(=O)c4cc5ncccc5[nH]4)C3)C(=O)O[C@]12C.O=CO [7.32],MIC H. influenzae 1218,[1],2 µg/mL
same,MIC S. pneumo. 1016,[2],<0.06 µg/mL
same,MIC S. pyogenes 1079,[3],>64.00 µg/mL
same,MIC S. pneumo. 1095,[4],<0.06 µg/mL
same,MIC S. pneumo. 1175,[5],2 µg/mL
CCC1OC(=O)C(C)C(=O)C(C)C(OC2OC(C)CC(N(C)C)C2O)C(C)(OC)CC(C)C(=O)C(C)C2N(CC3CCCN3Cc3ccno3)C(=O)OC12C (centres unmarked) [10.01],MIC H. influenzae 1218,[1],1 µg/mL
same,MIC S. pneumo. 1016,[2],<0.06 µg/mL
same,MIC S. pyogenes 1079,[3],>64.00 µg/mL
same,MIC S. pneumo. 1095,[4],0.25 µg/mL
same,MIC S. pneumo. 1175,[5],0.5 µg/mL
CCC1OC(=O)C(C)C(=O)C(C)C(OC2OC(C)CC(N(C)C)C2O)C(C)(OC)CC(C)C(=O)C(C)C2N(CC3CCCN3Cc3c[nH]nn3)C(=O)OC12C (centres unmarked) [10.02],MIC H. influenzae 1218,[1],1 µg/mL
same,MIC S. pneumo. 1016,[2],<0.06 µg/mL
same,MIC S. pyogenes 1079,[3],>64.00 µg/mL
same,MIC S. pneumo. 1095,[4],0.25 µg/mL
same,MIC S. pneumo. 1175,[5],2 µg/mL
